Source: patent publication US12251382B2, “Substituted amino-pyrimidine compound for use in a method for treatment and prevention of multiple sclerosis” (Merck Patent GmbH, priority 2018, dated 2025)
Entries after “also recorded” stand apart in the source; their conditions may differ. Where two headings read alike, the source gives them in different places.

How the values were obtained:
[1] = for Overall safety and tolerability: single doses 25-500 mg, multiple doses 25-200 mg for 14 days
Experimental: A randomized, double-blind, placebo-controlled trial conducted in healthy volunteers. […] Written informed consent was obtained from all participants.
Following completion of each dose cohort in both parts of the study, a safety monitoring committee (SMC) decided whether protocol-defined dose escalation to the next level was appropriate to a maximum of 500 mg in Part 1, or to the highest safe and tolerated dose or highest dose from Part 1 in Part 2, based on all safety data and other available data (including PK and PD data). […] Other safety data (e.g., hematology parameters) were also taken into consideration for dose escalation decisions as a matter of course.
TEAEs and SAEs were recorded from time of informed consent until study completion. […] Assessment of severity considered the Toxicity Grading Scale for Healthy Adult and Adolescent Volunteers Enrolled in Preventative Vaccine Clinical Trials. Data were summarized using descriptive statistics.

[2] = system: M1 macrophages; conditions: in vitro; cited from earlier work

For `C=CC(=O)N1CCC(CNc2ncnc(N)c2-c2ccc(Oc3ccccc3)cc2)CC1` [Evobrutinib, 1-(4-(((6-amino-5-(4-phenoxyphenyl)pyrimidin-4-yl)amino)methyl)piperidin-1-yl)prop-2-en-1-one], the “Dry eye, subjects” value ([1]; Part 1, single dose 100 mg) was 0 (0.0) n (%), the “Dry mouth, subjects” value ([1]; Part 1, single dose 100 mg) was 0 (0.0) n (%) and the “Dyspepsia, subjects” value ([1]; Part 1, single dose 100 mg) was 0 (0.0) n (%). The “Excoriation, subjects” value ([1]; Part 1, single dose 100 mg) was 0 (0.0) n (%), the “Headache, subjects” value ([1]; Part 1, single dose 100 mg) was 0 (0.0) n (%) and the “Lipase increased, subjects” value ([1]; Part 1, single dose 100 mg) was 0 (0.0) n (%). The “Multiple injuries, subjects” value ([1]; Part 1, single dose 100 mg) was 0 (0.0) n (%), the “Nasal congestion, number of TEAEs” value ([1]; Part 1, single dose 100 mg) was “[1]” and the “Nasal congestion, subjects” value ([1]; Part 1, single dose 100 mg) was 1 (16.7) n (%). For the same compound, the “Noncardiac chest pain, subjects” value ([1]; Part 1, single dose 100 mg) was 0 (0.0) n (%), the “Odynophagia, subjects” value ([1]; Part 1, single dose 100 mg) was 0 (0.0) n (%) and the “Overall total TEAEs, subjects” value ([1]; Part 1, single dose 100 mg) was 1 (16.7) n (%). For the same compound, the “Overall total, number of TEAEs” value ([1]; Part 1, single dose 100 mg) was “[1]”, the “Upper respiratory tract infection, subjects” value ([1]; Part 1, single dose 100 mg) was 0 (0.0) n (%) and the “Abdominal pain, subjects” value ([1]; Part 1, single dose 200 mg) was 0 (0.0) n (%). The “Amylase increased, number of TEAEs” value ([1]; Part 1, single dose 200 mg) was “[1]”, the “Amylase increased, subjects” value ([1]; Part 1, single dose 200 mg) was 1 (16.7) n (%) and the “Application site pruritus (due to ECG stickers), subjects” value (“Application site pruritus” below) ([1]; Part 1, single dose 200 mg) was 0 (0.0) n (%). The “Back pain, subjects” value ([1]; Part 1, single dose 200 mg) was 0 (0.0) n (%), the “Contact dermatitis, subjects” value ([1]; Part 1, single dose 200 mg) was 0 (0.0) n (%) and the “Dizziness, number of TEAEs” value ([1]; Part 1, single dose 200 mg) was “[1]”. For the same compound, the “Dizziness, subjects” value ([1]; Part 1, single dose 200 mg) was 1 (16.7) n (%), the “Dry eye, subjects” value ([1]; Part 1, single dose 200 mg) was 0 (0.0) n (%) and the “Dry mouth, subjects” value ([1]; Part 1, single dose 200 mg) was 0 (0.0) n (%). The “Dyspepsia, subjects” value ([1]; Part 1, single dose 200 mg) was 0 (0.0) n (%), the “Excoriation, number of TEAEs” value ([1]; Part 1, single dose 200 mg) was “[1]” and the “Excoriation, subjects” value ([1]; Part 1, single dose 200 mg) was 1 (16.7) n (%). For the same compound, the “Headache, subjects” value ([1]; Part 1, single dose 200 mg) was 0 (0.0) n (%), the “Lipase increased, number of TEAEs” value ([1]; Part 1, single dose 200 mg) was “[1]” and the “Lipase increased, subjects” value ([1]; Part 1, single dose 200 mg) was 1 (16.7) n (%). For the same compound, the “Multiple injuries, subjects” value ([1]; Part 1, single dose 200 mg) was 0 (0.0) n (%), the “Nasal congestion, subjects” value ([1]; Part 1, single dose 200 mg) was 0 (0.0) n (%) and the “Noncardiac chest pain, subjects” value ([1]; Part 1, single dose 200 mg) was 0 (0.0) n (%). For the same compound, the “Odynophagia, subjects” value ([1]; Part 1, single dose 200 mg) was 0 (0.0) n (%), the “Overall total TEAEs, subjects” value ([1]; Part 1, single dose 200 mg) was 2 (33.3) n (%) and the “Overall total, number of TEAEs” value ([1]; Part 1, single dose 200 mg) was “[4]”. For the same compound, the “Upper respiratory tract infection, subjects” value ([1]; Part 1, single dose 200 mg) was 0 (0.0) n (%), the “Abdominal pain, subjects” value ([1]; Part 1, single dose 350 mg) was 0 (0.0) n (%) and the “Amylase increased, subjects” value ([1]; Part 1, single dose 350 mg) was 0 (0.0) n (%). The “Application site pruritus” value ([1]; Part 1, single dose 350 mg) was 0 (0.0) n (%), the “Back pain, subjects” value ([1]; Part 1, single dose 350 mg) was 0 (0.0) n (%) and the “Contact dermatitis, subjects” value ([1]; Part 1, single dose 350 mg) was 0 (0.0) n (%). The “Dizziness, subjects” value ([1]; Part 1, single dose 350 mg) was 0 (0.0) n (%), the “Dry eye, subjects” value ([1]; Part 1, single dose 350 mg) was 0 (0.0) n (%) and the “Dry mouth, subjects” value ([1]; Part 1, single dose 350 mg) was 0 (0.0) n (%). For the same compound, the “Dyspepsia, subjects” value ([1]; Part 1, single dose 350 mg) was 0 (0.0) n (%), the “Excoriation, subjects” value ([1]; Part 1, single dose 350 mg) was 0 (0.0) n (%) and the “Headache, subjects” value ([1]; Part 1, single dose 350 mg) was 0 (0.0) n (%). The “Lipase increased, subjects” value ([1]; Part 1, single dose 350 mg) was 0 (0.0) n (%), the “Multiple injuries, number of TEAEs” value ([1]; Part 1, single dose 350 mg) was “[1]” and the “Multiple injuries, subjects” value ([1]; Part 1, single dose 350 mg) was 1 (16.7) n (%). The “Nasal congestion, subjects” value ([1]; Part 1, single dose 350 mg) was 0 (0.0) n (%), the “Noncardiac chest pain, subjects” value ([1]; Part 1, single dose 350 mg) was 0 (0.0) n (%) and the “Odynophagia, subjects” value ([1]; Part 1, single dose 350 mg) was 0 (0.0) n (%). For the same compound, the “Overall total TEAEs, subjects” value ([1]; Part 1, single dose 350 mg) was 1 (16.7) n (%), the “Overall total, number of TEAEs” value ([1]; Part 1, single dose 350 mg) was “[1]” and the “Upper respiratory tract infection, subjects” value ([1]; Part 1, single dose 350 mg) was 0 (0.0) n (%). The “Abdominal pain, subjects” value ([1]; Part 1, single dose 500 mg) was 0 (0.0) n (%), the “Amylase increased, subjects” value ([1]; Part 1, single dose 500 mg) was 0 (0.0) n (%) and the “Application site pruritus” value ([1]; Part 1, single dose 500 mg) was 0 (0.0) n (%). The “Back pain, subjects” value ([1]; Part 1, single dose 500 mg) was 0 (0.0) n (%), the “Contact dermatitis, subjects” value ([1]; Part 1, single dose 500 mg) was 0 (0.0) n (%) and the “Dizziness, subjects” value ([1]; Part 1, single dose 500 mg) was 0 (0.0) n (%). For the same compound, the “Dry eye, number of TEAEs” value ([1]; Part 1, single dose 500 mg) was “[1]”, the “Dry eye, subjects” value ([1]; Part 1, single dose 500 mg) was 1 (16.7) n (%) and the “Dry mouth, subjects” value ([1]; Part 1, single dose 500 mg) was 0 (0.0) n (%). The “Dyspepsia, subjects” value ([1]; Part 1, single dose 500 mg) was 0 (0.0) n (%), the “Excoriation, subjects” value ([1]; Part 1, single dose 500 mg) was 0 (0.0) n (%) and the “Headache, number of TEAEs” value ([1]; Part 1, single dose 500 mg) was “[2]”. For the same compound, the “Headache, subjects” value ([1]; Part 1, single dose 500 mg) was 1 (16.7) n (%), the “Lipase increased, subjects” value ([1]; Part 1, single dose 500 mg) was 0 (0.0) n (%) and the “Multiple injuries, subjects” value ([1]; Part 1, single dose 500 mg) was 0 (0.0) n (%). For the same compound, the “Nasal congestion, subjects” value ([1]; Part 1, single dose 500 mg) was 0 (0.0) n (%), the “Noncardiac chest pain, subjects” value ([1]; Part 1, single dose 500 mg) was 0 (0.0) n (%) and the “Odynophagia, number of TEAEs” value ([1]; Part 1, single dose 500 mg) was “[1]”. For the same compound, the “Odynophagia, subjects” value ([1]; Part 1, single dose 500 mg) was 1 (16.7) n (%), the “Overall total TEAEs, subjects” value ([1]; Part 1, single dose 500 mg) was 2 (33.3) n (%) and the “Overall total, number of TEAEs” value ([1]; Part 1, single dose 500 mg) was “[3]”. The “Upper respiratory tract infection, subjects” value ([1]; Part 1, single dose 500 mg) was 0 (0.0) n (%), the “Subjects with TEAEs” value ([1]; Part 1, single dosing, all evobrutinib doses) was 25% and the “TEAEs leading to discontinuation; trends in vital signs, ECGs, laboratory values, IgG subclasses” value ([1]; either part of the study) was “no TEAEs leading to discontinuation and no clinically significant trends in vital signs, ECGs, laboratory values or immunoglobulin G (IgG) subclasses”. For the same compound, the “SAE of multi-trauma due to an automobile accident, relation to study drug” value ([1]; one subject, 350 mg single ascending dose cohort, 7 days after administration) was “unrelated to the study drug”, the “Deaths or serious adverse events (SAEs) related to treatment” value ([1]; single and multiple dosing (Parts 1 and 2)) was “no deaths or serious adverse events (SAEs) related to treatment” and the “Overall safety and tolerability” value [1] was “well tolerated”. For the same compound, the “Overall safety and tolerability” value ([1]; listed as evobrutinib) was “safe and well tolerated and no non-tolerated dose could be defined; also recorded: safe and well tolerated” and the Effects on macrophages [2] was “inhibiting the activation, differentiation and polarisation of M1 macrophages and by promoting the M2 macrophage-phenotype”.
